Experimental data published in patent US12365696B2, “Small-molecule focal adhesion kinase (FAK) inhibitors” (DANA-FARBER CANCER INSTITUTE, INC., priority 2019, dated 2025).

Legend:
Test in all cases: KINOMEscan
Type in all cases: binding
GCN2(Kin.Dom.2, S808G) = GCN2(Kin.Dom.2, S808G) (Homo sapiens (Human), UniProt Q9P2K8, S808G); settings: 10000 nM, read-out: Percent Control
LATS2 = LATS2 (Homo sapiens (Human), UniProt Q9NRM7); settings: LATS2, 10000 nM; read-out: Percent Control
PLK3 = PLK3 (Homo sapiens (Human), UniProt Q9H4B4); settings: PLK3, 10000 nM; read-out: Percent Control
MAP4K3 = MAP4K3 (Homo sapiens (Human), UniProt Q8IVH8); settings: MAP4K3, 10000 nM; read-out: Percent Control
FGFR3 = FGFR3 (Homo sapiens (Human), UniProt P22607); settings: FGFR3, 10000 nM; read-out: Percent Control
WEE1 = WEE1 (Homo sapiens (Human), UniProt P30291); settings: WEE1, 10000 nM; read-out: Percent Control
MARK4 = MARK4 (Homo sapiens (Human), UniProt Q96L34); settings: MARK4, 10000 nM; read-out: Percent Control
ROS1 = ROS1 (Homo sapiens (Human), UniProt P08922); settings: ROS1, 10000 nM; read-out: Percent Control
CDK5 = CDK5 (Homo sapiens (Human), UniProt Q00535); settings: CDK5, 10000 nM; read-out: Percent Control
EGFR(E746-A750del) = EGFR(E746-A750del) (Homo sapiens (Human), UniProt P00533, DEL746-750); settings: 10000 nM, read-out: Percent Control
TGFBR2 = TGFBR2 (Homo sapiens (Human), UniProt P37173); settings: TGFBR2, 10000 nM; read-out: Percent Control
KIT(V559D) = KIT(V559D) (Homo sapiens (Human), UniProt P10721, V559D); settings: 10000 nM, read-out: Percent Control
EGFR(S752-I759del) = EGFR(S752-I759del) (Homo sapiens (Human), UniProt P00533, DEL752-759); settings: 10000 nM, read-out: Percent Control
NEK6 = NEK6 (Homo sapiens (Human), UniProt Q9HC98); settings: NEK6, 10000 nM; read-out: Percent Control
RIOK2 = RIOK2 (Homo sapiens (Human), UniProt Q9BVS4); settings: RIOK2, 10000 nM; read-out: Percent Control
PHKG2 = PHKG2 (Homo sapiens (Human), UniProt P15735); settings: PHKG2, 10000 nM; read-out: Percent Control
NEK1 = NEK1 (Homo sapiens (Human), UniProt Q96PY6); settings: NEK1, 10000 nM; read-out: Percent Control
PIP5K2C = PIP5K2C (Homo sapiens (Human), UniProt Q8TBX8); settings: 10000 nM, read-out: Percent Control
FLT3(ITD, F691L) = settings: 10000 nM
DMPK2 = DMPK2 (Homo sapiens (Human), UniProt Q6DT37); settings: DMPK2, 10000 nM; read-out: Percent Control
FLT3 = FLT3 (Homo sapiens (Human), UniProt P36888); settings: FLT3, 10000 nM; read-out: Percent Control
[1] = target: RSK3(Kin.Dom.2-C-terminal) (Homo sapiens (Human), UniProt Q15349); settings: 10000 nM, read-out: Percent Control
AXL = AXL (Homo sapiens (Human), UniProt P30530); settings: 10000 nM, read-out: Percent Control
PIK3CD = PIK3CD (Homo sapiens (Human), UniProt O00329); settings: 10000 nM, read-out: Percent Control
MAPKAPK2 = MAPKAPK2 (Homo sapiens (Human), UniProt P49137); settings: MAPKAPK2, 10000 nM; read-out: Percent Control
TNIK = TNIK (Homo sapiens (Human), UniProt Q9UKE5); settings: 10000 nM, read-out: Percent Control
[2] = target: TYK2(JH1domain-catalytic) (Homo sapiens (Human), UniProt P29597); settings: 10000 nM, read-out: Percent Control
MAST1 = MAST1 (Homo sapiens (Human), UniProt Q9Y2H9); settings: MAST1, 10000 nM; read-out: Percent Control
p38-alpha = p38-alpha (Homo sapiens (Human), UniProt Q16539); settings: 10000 nM, read-out: Percent Control
PRKD3 = PRKD3 (Homo sapiens (Human), UniProt O94806); settings: PRKD3, 10000 nM; read-out: Percent Control
CDC2L2 = CDC2L2 (Homo sapiens (Human), UniProt Q9UQ88); settings: CDC2L2, 10000 nM; read-out: Percent Control
CDKL2 = CDKL2 (Homo sapiens (Human), UniProt Q92772); settings: CDKL2, 10000 nM; read-out: Percent Control
CLK4 = CLK4 (Homo sapiens (Human), UniProt Q9HAZ1); settings: CLK4, 10000 nM; read-out: Percent Control
Chain of CLK4 (Q9HAZ1 whole entry): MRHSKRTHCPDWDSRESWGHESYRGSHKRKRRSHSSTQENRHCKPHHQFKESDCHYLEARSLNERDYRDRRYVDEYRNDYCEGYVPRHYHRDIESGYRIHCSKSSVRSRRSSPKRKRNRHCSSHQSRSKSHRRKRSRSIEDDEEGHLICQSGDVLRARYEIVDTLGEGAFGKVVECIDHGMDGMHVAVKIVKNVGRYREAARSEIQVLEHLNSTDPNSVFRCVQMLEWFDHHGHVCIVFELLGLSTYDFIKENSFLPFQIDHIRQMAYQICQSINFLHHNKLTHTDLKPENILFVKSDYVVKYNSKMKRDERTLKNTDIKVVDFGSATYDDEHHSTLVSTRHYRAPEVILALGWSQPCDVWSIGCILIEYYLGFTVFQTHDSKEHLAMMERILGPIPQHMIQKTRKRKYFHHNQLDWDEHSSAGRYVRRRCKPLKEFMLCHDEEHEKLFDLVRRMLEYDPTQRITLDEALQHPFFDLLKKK

Chain of PIK3CD (O00329 whole entry): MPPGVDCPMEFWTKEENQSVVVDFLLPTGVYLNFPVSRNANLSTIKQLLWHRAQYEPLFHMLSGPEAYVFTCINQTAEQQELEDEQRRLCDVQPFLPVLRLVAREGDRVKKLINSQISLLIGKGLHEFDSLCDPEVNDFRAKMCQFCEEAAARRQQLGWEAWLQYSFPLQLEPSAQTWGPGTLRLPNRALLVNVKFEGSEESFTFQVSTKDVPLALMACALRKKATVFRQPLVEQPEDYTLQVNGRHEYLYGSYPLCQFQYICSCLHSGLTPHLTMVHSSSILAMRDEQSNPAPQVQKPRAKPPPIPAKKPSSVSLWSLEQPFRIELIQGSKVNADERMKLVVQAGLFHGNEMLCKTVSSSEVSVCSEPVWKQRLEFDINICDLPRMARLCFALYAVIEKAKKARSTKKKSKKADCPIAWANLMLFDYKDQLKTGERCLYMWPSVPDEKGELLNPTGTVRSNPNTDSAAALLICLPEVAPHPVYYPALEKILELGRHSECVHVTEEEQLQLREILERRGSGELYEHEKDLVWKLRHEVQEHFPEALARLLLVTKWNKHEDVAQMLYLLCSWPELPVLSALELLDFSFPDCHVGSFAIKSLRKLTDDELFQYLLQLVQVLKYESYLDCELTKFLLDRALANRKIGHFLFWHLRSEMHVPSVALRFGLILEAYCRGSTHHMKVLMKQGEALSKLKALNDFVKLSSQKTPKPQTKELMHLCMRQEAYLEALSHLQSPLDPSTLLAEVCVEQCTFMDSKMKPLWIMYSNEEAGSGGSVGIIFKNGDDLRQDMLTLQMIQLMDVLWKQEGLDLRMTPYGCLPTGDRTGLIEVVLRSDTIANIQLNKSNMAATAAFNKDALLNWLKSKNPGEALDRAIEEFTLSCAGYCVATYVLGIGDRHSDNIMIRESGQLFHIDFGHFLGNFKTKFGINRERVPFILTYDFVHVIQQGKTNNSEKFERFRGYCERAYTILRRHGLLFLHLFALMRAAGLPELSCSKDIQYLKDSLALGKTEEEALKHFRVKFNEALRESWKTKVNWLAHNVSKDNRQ
Chain of CDC2L2 (Q9UQ88 whole entry): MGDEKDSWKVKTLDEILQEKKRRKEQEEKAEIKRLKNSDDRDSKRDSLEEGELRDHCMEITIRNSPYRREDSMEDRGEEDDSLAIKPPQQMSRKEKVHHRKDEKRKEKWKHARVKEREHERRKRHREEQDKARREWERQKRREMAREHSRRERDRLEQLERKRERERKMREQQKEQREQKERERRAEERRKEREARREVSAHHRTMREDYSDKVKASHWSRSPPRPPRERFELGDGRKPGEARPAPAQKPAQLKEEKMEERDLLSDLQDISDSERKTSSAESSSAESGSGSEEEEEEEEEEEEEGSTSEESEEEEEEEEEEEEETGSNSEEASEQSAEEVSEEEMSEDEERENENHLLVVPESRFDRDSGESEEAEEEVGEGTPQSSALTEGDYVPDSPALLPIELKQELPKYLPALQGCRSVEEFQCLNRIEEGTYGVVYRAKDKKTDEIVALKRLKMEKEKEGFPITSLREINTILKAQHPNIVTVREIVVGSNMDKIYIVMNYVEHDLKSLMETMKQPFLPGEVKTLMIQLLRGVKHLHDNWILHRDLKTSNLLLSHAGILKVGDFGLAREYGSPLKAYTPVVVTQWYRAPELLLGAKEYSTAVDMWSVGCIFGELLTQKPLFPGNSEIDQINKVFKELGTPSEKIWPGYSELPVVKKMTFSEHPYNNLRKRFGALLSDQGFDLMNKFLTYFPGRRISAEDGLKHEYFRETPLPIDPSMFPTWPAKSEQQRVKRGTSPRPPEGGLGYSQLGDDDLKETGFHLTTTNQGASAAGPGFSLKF
Chain of RIOK2 (Q9BVS4 whole entry): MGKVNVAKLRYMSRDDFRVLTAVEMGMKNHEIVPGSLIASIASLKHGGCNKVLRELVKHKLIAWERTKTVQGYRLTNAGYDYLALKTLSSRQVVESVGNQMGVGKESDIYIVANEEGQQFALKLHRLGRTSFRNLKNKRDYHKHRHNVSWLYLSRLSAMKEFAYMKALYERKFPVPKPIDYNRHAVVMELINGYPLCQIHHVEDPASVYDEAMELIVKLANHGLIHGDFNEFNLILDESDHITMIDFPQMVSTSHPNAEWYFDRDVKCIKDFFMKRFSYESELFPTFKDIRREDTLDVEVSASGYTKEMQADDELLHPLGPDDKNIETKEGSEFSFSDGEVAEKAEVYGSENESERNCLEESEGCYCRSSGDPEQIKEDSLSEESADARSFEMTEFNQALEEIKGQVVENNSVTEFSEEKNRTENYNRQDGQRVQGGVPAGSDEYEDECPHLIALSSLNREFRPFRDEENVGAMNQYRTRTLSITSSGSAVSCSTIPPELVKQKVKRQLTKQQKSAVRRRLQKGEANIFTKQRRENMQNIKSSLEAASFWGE
Chain of AXL (P30530 26-894): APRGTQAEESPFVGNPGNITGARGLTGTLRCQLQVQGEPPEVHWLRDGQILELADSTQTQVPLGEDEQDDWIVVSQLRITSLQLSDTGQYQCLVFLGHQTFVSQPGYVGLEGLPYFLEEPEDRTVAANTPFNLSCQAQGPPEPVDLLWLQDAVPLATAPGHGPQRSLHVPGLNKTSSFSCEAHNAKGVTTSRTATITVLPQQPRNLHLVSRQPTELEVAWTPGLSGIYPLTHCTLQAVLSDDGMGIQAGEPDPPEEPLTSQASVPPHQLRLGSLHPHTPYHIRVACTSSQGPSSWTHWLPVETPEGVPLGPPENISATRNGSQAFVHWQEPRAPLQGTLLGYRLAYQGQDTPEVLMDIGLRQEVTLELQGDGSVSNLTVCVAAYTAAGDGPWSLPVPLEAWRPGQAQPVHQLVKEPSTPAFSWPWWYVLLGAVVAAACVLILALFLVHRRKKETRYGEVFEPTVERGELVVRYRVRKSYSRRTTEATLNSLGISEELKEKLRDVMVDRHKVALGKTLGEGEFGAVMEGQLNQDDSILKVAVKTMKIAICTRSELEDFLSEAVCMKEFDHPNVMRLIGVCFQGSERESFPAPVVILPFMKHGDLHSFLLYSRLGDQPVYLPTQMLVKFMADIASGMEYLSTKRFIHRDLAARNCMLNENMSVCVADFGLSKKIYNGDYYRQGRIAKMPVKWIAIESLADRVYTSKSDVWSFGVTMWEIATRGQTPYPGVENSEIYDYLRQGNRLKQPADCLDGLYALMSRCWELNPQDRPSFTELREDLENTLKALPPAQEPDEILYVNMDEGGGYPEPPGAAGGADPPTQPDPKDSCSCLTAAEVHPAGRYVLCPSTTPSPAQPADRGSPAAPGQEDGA
Chain of LATS2 (Q9NRM7 whole entry): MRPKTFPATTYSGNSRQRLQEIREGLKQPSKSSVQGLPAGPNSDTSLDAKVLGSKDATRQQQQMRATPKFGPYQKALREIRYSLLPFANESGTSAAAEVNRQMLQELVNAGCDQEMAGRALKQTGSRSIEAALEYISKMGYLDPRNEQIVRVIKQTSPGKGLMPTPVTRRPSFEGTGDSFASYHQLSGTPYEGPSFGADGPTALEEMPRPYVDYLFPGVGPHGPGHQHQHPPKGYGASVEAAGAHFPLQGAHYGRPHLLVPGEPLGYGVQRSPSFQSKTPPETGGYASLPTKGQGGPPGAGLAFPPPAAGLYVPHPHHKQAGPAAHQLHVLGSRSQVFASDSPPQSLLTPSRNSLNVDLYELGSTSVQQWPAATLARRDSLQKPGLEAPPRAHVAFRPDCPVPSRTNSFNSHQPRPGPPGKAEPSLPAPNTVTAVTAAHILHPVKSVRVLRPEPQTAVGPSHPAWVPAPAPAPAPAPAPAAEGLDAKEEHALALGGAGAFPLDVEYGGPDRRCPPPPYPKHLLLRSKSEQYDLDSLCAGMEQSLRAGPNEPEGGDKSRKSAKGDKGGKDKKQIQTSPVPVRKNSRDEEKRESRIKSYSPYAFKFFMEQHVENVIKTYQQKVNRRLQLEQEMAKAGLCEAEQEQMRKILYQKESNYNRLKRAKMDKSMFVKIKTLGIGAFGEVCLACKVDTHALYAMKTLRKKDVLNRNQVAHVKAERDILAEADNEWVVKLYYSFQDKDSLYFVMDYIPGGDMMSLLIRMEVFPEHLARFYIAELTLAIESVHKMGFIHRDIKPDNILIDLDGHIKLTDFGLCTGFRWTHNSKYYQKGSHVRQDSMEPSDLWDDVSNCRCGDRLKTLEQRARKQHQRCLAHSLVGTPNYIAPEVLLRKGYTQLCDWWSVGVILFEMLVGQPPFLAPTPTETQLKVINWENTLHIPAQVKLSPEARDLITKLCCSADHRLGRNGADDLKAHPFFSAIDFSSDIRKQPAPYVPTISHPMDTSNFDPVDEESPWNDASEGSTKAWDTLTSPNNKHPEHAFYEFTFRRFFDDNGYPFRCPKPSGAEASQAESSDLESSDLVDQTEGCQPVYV
Chain of RSK3(Kin.Dom.2-C-terminal) (Q15349 415-672): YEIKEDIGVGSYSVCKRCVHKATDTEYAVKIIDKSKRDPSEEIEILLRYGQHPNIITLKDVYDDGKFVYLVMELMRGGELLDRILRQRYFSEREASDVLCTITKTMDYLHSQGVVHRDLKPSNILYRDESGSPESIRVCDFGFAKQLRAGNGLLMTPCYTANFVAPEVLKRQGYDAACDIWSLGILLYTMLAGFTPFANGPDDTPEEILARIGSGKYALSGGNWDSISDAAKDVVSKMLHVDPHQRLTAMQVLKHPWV

COc1cc(N2CCC(N3CCN(C)CC3)CC2)ccc1Nc1ncc2c(n1)N(C)c1sc(C)nc1C(=O)N2 [Compound 3, 6-((2-methoxy-4-(4-(4-methylpiperazin-1-yl)piperidin-1-yl)phenyl)amino)-2,4-dimethyl-4,9-dihydro-10H-pyrimido[5,4-b]thiazolo[5,4-e][1,4]diazepin-10-one]
remaining binding at 10 µM (GCN2(Kin.Dom.2, S808G)): 88% | remaining binding at 10 µM (LATS2): 100% | remaining binding at 10 µM (PLK3): 52% | remaining binding at 10 µM (MAP4K3): 100% | remaining binding at 10 µM (FGFR3): 92% | remaining binding at 10 µM (WEE1): 88% | remaining binding at 10 µM (MARK4): 83% | remaining binding at 10 µM (ROS1): 74% | remaining binding at 10 µM (CDK5): 71% | remaining binding at 10 µM (EGFR(E746-A750del)): 67% | remaining binding at 10 µM (TGFBR2): 96% | remaining binding at 10 µM (KIT(V559D)): 56% | remaining binding at 10 µM (EGFR(S752-I759del)): 47% | remaining binding at 10 µM (NEK6): 78% | remaining binding at 10 µM (RIOK2): 82% | remaining binding at 10 µM (PHKG2): 69% | remaining binding at 10 µM (NEK1): 78% | remaining binding at 10 µM (PIP5K2C): 86% | Percent Control (FLT3(ITD, F691L)): 100% | remaining binding at 10 µM (DMPK2): 91% | remaining binding at 10 µM (FLT3): 100% | remaining binding at 10 µM [1]: 84% | remaining binding at 10 µM (AXL): 100% | remaining binding at 10 µM (PIK3CD): 98% | remaining binding at 10 µM (MAPKAPK2): 100% | remaining binding at 10 µM (TNIK): 94% | remaining binding at 10 µM [2]: 84% | remaining binding at 10 µM (MAST1): 84% | remaining binding at 10 µM (p38-alpha): 75% | remaining binding at 10 µM (PRKD3): 75% | remaining binding at 10 µM (CDC2L2): 87% | remaining binding at 10 µM (CDKL2): 75% | remaining binding at 10 µM (CLK4): 76%

COc1cc(N2CCC(N3CCN(C)CC3)CC2)ccc1Nc1ncc2c(n1)N(C)c1sc(C)nc1C(=O)N2C [Compound 5, 6-((2-methoxy-4-(4-(4-methylpiperazin-1-yl)piperidin-1-yl)phenyl)amino)-2,4,9-trimethyl-4,9-dihydro-10H-pyrimido[5,4-b]thiazolo[5,4-e][1,4]diazepin-10-one]
remaining binding at 10 µM (GCN2(Kin.Dom.2, S808G)): 94% | remaining binding at 10 µM (LATS2): 98% | remaining binding at 10 µM (PLK3): 20% | remaining binding at 10 µM (MAP4K3): 100% | remaining binding at 10 µM (FGFR3): 98% | remaining binding at 10 µM (WEE1): 98% | remaining binding at 10 µM (MARK4): 87% | remaining binding at 10 µM (ROS1): 75% | remaining binding at 10 µM (CDK5): 98% | remaining binding at 10 µM (EGFR(E746-A750del)): 79% | remaining binding at 10 µM (TGFBR2): 98% | remaining binding at 10 µM (KIT(V559D)): 100% | remaining binding at 10 µM (EGFR(S752-I759del)): 100% | remaining binding at 10 µM (NEK6): 90% | remaining binding at 10 µM (RIOK2): 100% | remaining binding at 10 µM (PHKG2): 38% | remaining binding at 10 µM (NEK1): 97% | remaining binding at 10 µM (PIP5K2C): 75% | Percent Control (FLT3(ITD, F691L)): 93% | remaining binding at 10 µM (DMPK2): 93% | remaining binding at 10 µM (FLT3): 99% | remaining binding at 10 µM [1]: 31% | remaining binding at 10 µM (AXL): 97% | remaining binding at 10 µM (PIK3CD): 92% | remaining binding at 10 µM (MAPKAPK2): 100% | remaining binding at 10 µM (TNIK): 99% | remaining binding at 10 µM [2]: 97% | remaining binding at 10 µM (MAST1): 100% | remaining binding at 10 µM (p38-alpha): 93% | remaining binding at 10 µM (PRKD3): 34% | remaining binding at 10 µM (CDC2L2): 95% | remaining binding at 10 µM (CDKL2): 95% | remaining binding at 10 µM (CLK4): 85%
